Data: PubChem BioAssay AID248 (DTP/NCI, 2004)
Several values for one entry are separate records, joined by “and”; a condition that tells them apart may be missing. Equal values may be shown once. Inconclusive results and toxic doses are left out. Rule as the data show it: active = T/C of 150% or more; inactive = T/C below 125%.

System: L1210 leukemia ip in BDF1 mice, survival T/C
Experiment: NCI In Vivo Anticancer Drug Screen. Data for tumor model L1210 Leukemia (intraperitoneal) in B6D2F1 (BDF1) mice
Conditions: endpoint: mean survival time, higher = longer survival
How it was run: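 Transplanted-tumor mice were given test agent; controls received vehicle only. Survival readings from the two groups were divided (treated over control).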

[1] = dose: 100.0 mg/kg/injection, schedule: Q04DX003 (ip), vehicle: saline with Tween-80
[2] = dose: 200.0 mg/kg/injection, schedule: Q04DX003 (ip), vehicle: saline with Tween-80
[3] = dose: 50.0 mg/kg/injection, schedule: Q01DX001 (ip), vehicle: saline
[4] = dose: 100.0 mg/kg/injection, schedule: Q01DX001 (ip), vehicle: saline
[5] = dose: 200.0 mg/kg/injection, schedule: Q01DX001 (ip), vehicle: saline
[6] = dose: 400.0 mg/kg/injection, schedule: Q01DX001 (ip), vehicle: saline
[7] = dose: 100.0 mg/kg/injection, schedule: Q04DX002 (ip), vehicle: Klucel (hydroxypropylcellulose) (HPC)
[8] = dose: 200.0 mg/kg/injection, schedule: Q04DX002 (ip), vehicle: Klucel (hydroxypropylcellulose) (HPC)
[9] = dose: 400.0 mg/kg/injection, schedule: Q04DX002 (ip), vehicle: Klucel (hydroxypropylcellulose) (HPC)
[10] = dose: 50.0 mg/kg/injection, schedule: Q01DX001 (ip), vehicle: carboxymethylcellulose (CMC)
[11] = dose: 100.0 mg/kg/injection, schedule: Q01DX009 (ip), vehicle: Klucel (hydroxypropylcellulose) (HPC)
[12] = dose: 100.0 mg/kg/injection, schedule: Q04DX003 (ip), vehicle: Klucel (hydroxypropylcellulose) (HPC)
[13] = dose: 200.0 mg/kg/injection, schedule: Q01DX009 (ip), vehicle: Klucel (hydroxypropylcellulose) (HPC)
[14] = dose: 200.0 mg/kg/injection, schedule: Q04DX003 (ip), vehicle: Klucel (hydroxypropylcellulose) (HPC)
[15] = dose: 400.0 mg/kg/injection, schedule: Q04DX003 (ip), vehicle: Klucel (hydroxypropylcellulose) (HPC)

Measured: T/C

Cc1ccc(OCCC(=O)O)cc1
inactive: dose: 100.0 mg/kg/injection, schedule: Q04DX002 (ip), vehicle: saline 108 % of control | dose: 200.0 mg/kg/injection, schedule: Q04DX002 (ip), vehicle: saline 101 % of control | dose: 400.0 mg/kg/injection, schedule: Q04DX002 (ip), vehicle: saline 108 % of control

CC1=C(Br)C(=O)C(C)=C(Br)C1=O
inactive: dose: 25.0 mg/kg/injection, schedule: Q04DX003 (ip), vehicle: other 95 % of control | dose: 50.0 mg/kg/injection, schedule: Q04DX003 (ip), vehicle: other 87 % of control | dose: 100.0 mg/kg/injection, schedule: Q04DX003 (ip), vehicle: other 100 % of control

COC(=O)C1c2ccoc2CC2C1C(O)C(O)C1C(C)(C)CCCC21C (stereo not given)
inactive: dose: 50.0 mg/kg/injection, schedule: Q04DX003 (ip), vehicle: saline with Tween-80 103 % of control | [1] 95 % of control | [2] 95 % of control

CNC(=S)N/N=C/C(C)=N/NC(=S)NC
inactive: dose: 4.0 mg/kg/injection, schedule: Q01DX Z (ip), vehicle: carboxymethylcellulose (CMC) 102 % of control | dose: 8.0 mg/kg/injection, schedule: Q01DX Z (ip), vehicle: carboxymethylcellulose (CMC) 97 % of control | dose: 10.0 mg/kg/injection, schedule: Q04DX003 (ip), vehicle: saline 98 % of control | dose: 16.0 mg/kg/injection, schedule: Q01DX Z (ip), vehicle: carboxymethylcellulose (CMC) 95 % of control and 103 % of control | dose: 20.0 mg/kg/injection, schedule: Q04DX003 (ip), vehicle: saline 100 % of control | dose: 31.0 mg/kg/injection, schedule: Q01DX Z (ip), vehicle: carboxymethylcellulose (CMC) 95 % of control | dose: 40.0 mg/kg/injection, schedule: Q04DX003 (ip), vehicle: saline 96 % of control | [3] 86 % of control | dose: 62.0 mg/kg/injection, schedule: Q01DX Z (ip), vehicle: carboxymethylcellulose (CMC) 93 % of control and 100 % of control | dose: 80.0 mg/kg/injection, schedule: Q04DX003 (ip), vehicle: saline 93 % of control | [4] 95 % of control | dose: 125.0 mg/kg/injection, schedule: Q01DX Z (ip), vehicle: carboxymethylcellulose (CMC) 90 % of control and 91 % of control | [5] 89 % of control | dose: 250.0 mg/kg/injection, schedule: Q01DX Z (ip), vehicle: carboxymethylcellulose (CMC) 93 % of control | [6] 95 % of control | dose: 500.0 mg/kg/injection, schedule: Q01DX Z (ip), vehicle: carboxymethylcellulose (CMC) 90 % of control | dose: 1000.0 mg/kg/injection, schedule: Q01DX Z (ip), vehicle: carboxymethylcellulose (CMC) 90 % of control | dose: 125.0 micrograms/kg/injection, schedule: Q01DX009 (ip), vehicle: saline 101 % of control | dose: 250.0 micrograms/kg/injection, schedule: Q01DX009 (ip), vehicle: saline 98 % of control | dose: 500.0 micrograms/kg/injection, schedule: Q01DX009 (ip), vehicle: saline 98 % of control | dose: 1000.0 micrograms/kg/injection, schedule: Q01DX009 (ip), vehicle: saline 107 % of control

CC(C)(C)c1ccc(SCN(CSc2ccc(C(C)(C)C)cc2)Cc2ccccc2)cc1
inactive: dose: 100.0 mg/kg/injection, schedule: Q01DX001 (ip), vehicle: other 105 % of control | dose: 200.0 mg/kg/injection, schedule: Q01DX001 (ip), vehicle: other 100 % of control | dose: 400.0 mg/kg/injection, schedule: Q01DX001 (ip), vehicle: other 94 % of control

CN(Cc1cccc(Cl)c1)C(=O)Nc1ccccc1
inactive: [7] 110 % of control | [8] 110 % of control | [9] 107 % of control

O=C(Nc1ccc(S(=O)(=O)NC2CCCCC2)cc1)Oc1ccccc1C(=O)O
inactive: [4] 100 % of control | [5] 91 % of control | [6] 100 % of control

CCCCCCCCC/C(C)=N/NC(=O)c1ccc[n+](C)c1
inactive: dose: 50.0 mg/kg/injection, schedule: Q01DX009 (ip), vehicle: saline 93 % of control | dose: 100.0 mg/kg/injection, schedule: Q01DX009 (ip), vehicle: saline 93 % of control | dose: 200.0 mg/kg/injection, schedule: Q01DX009 (ip), vehicle: saline 96 % of control

C1CN=C2CCCN2C1
inactive: dose: 18.75 mg/kg/injection, schedule: Q01DX009 (ip), vehicle: saline 100 % of control | dose: 37.5 mg/kg/injection, schedule: Q01DX009 (ip), vehicle: saline 97 % of control

CC[Si](CC)(CC)N1CC1
inactive: dose: 12.5 mg/kg/injection, schedule: Q01DX001 (ip), vehicle: carboxymethylcellulose (CMC) 106 % of control | dose: 25.0 mg/kg/injection, schedule: Q01DX001 (ip), vehicle: carboxymethylcellulose (CMC) 92 % of control | [10] 92 % of control

COc1ccc2c(c1C)CCC1(C(=O)O)CC(C)C(O)CC21 (stereo not given)
inactive: dose: 100.0 mg/kg/injection, schedule: Q01DX009 (ip), vehicle: saline sonified 98 % of control | dose: 200.0 mg/kg/injection, schedule: Q01DX009 (ip), vehicle: saline sonified 96 % of control | dose: 400.0 mg/kg/injection, schedule: Q01DX009 (ip), vehicle: saline sonified 96 % of control

CNC(=O)NC1CCOCC1
inactive: [4] 100 % of control | [5] 96 % of control | [6] 96 % of control

CC(=O)[C@H]1CC[C@H]2[C@@H]3C[C@H](F)C4=CC(=O)CC[C@]4(C)[C@@]3(F)[C@@H](O)C[C@]12C
inactive: dose: 50.0 mg/kg/injection, schedule: Q01DX009 (sc), vehicle: steriod suspending solution 124 % of control | dose: 100.0 mg/kg/injection, schedule: Q01DX009 (sc), vehicle: steriod suspending solution 101 % of control | dose: 100.0 mg/kg/injection, schedule: Q04DX003 (sc), vehicle: steriod suspending solution 97 % of control | dose: 200.0 mg/kg/injection, schedule: Q01DX009 (sc), vehicle: steriod suspending solution 104 % of control | dose: 200.0 mg/kg/injection, schedule: Q04DX003 (sc), vehicle: steriod suspending solution 105 % of control | dose: 400.0 mg/kg/injection, schedule: Q04DX003 (sc), vehicle: steriod suspending solution 103 % of control

CC1=NCCCN=C(C)C(C)=NCCCN=C1C.[Br][Co][Br]
inactive: dose: 25.0 mg/kg/injection, schedule: Q01DX009 (ip), vehicle: Klucel (hydroxypropylcellulose) (HPC) 100 % of control | dose: 50.0 mg/kg/injection, schedule: Q01DX009 (ip), vehicle: Klucel (hydroxypropylcellulose) (HPC) 96 % of control | [11] 95 % of control | [12] 106 % of control | [13] 110 % of control | [14] 90 % of control

CCCCCCCCSP(=S)(N1CC1)N1CC1
inactive: [3] 102 % of control | [4] 108 % of control | [5] 98 % of control | [6] 96 % of control

COC(=O)c1cc2c(cc1O)CCCC2
inactive: [10] 107 % of control | dose: 100.0 mg/kg/injection, schedule: Q01DX001 (ip), vehicle: carboxymethylcellulose (CMC) 113 % of control | dose: 200.0 mg/kg/injection, schedule: Q01DX001 (ip), vehicle: carboxymethylcellulose (CMC) 107 % of control | dose: 400.0 mg/kg/injection, schedule: Q01DX001 (ip), vehicle: carboxymethylcellulose (CMC) 107 % of control

COc1ccc2c(c1)CN(S(=O)(=O)c1ccc(C)cc1)CCC2O (stereo not given)
inactive: [11] 96 % of control | [12] 96 % of control | [13] 116 % of control | [14] 114 % of control | dose: 400.0 mg/kg/injection, schedule: Q01DX009 (ip), vehicle: Klucel (hydroxypropylcellulose) (HPC) 98 % of control | [15] 96 % of control

CCCCCCCCCCCCCCCCCCNC(=O)Nc1ccc([N+](=O)[O-])cc1Br
inactive: [7] 97 % of control | [8] 97 % of control | [9] 90 % of control

C=CC[N+]1=C(C)C(C)(C)c2ccccc21
inactive: [1] 95 % of control | [2] 96 % of control

c1ccc(-c2cc3ccccc3[nH]2)nc1
inactive: [12] 95 % of control | [14] 93 % of control | [15] 93 % of control

NC1CC[N-]CC1.NC1CC[N-]CC1.NC1CC[N-]CC1.NC1CC[N-]CC1.[Cl][Rh][Cl]
inactive: dose: 6.25 mg/kg/injection, schedule: Q01DX009 (ip), vehicle: saline with Tween-80 100 % of control | dose: 12.5 mg/kg/injection, schedule: Q01DX009 (ip), vehicle: saline with Tween-80 96 % of control | dose: 25.0 mg/kg/injection, schedule: Q01DX009 (ip), vehicle: saline with Tween-80 104 % of control
